Results published in ChEMBL document CHEMBL4330059, “Discovery of N1-(4-((7-(3-(4-ethylpiperazin-1-yl)propoxy)-6-methoxyquinolin-4-yl)oxy)-3,5-difluorophenyl)-N3-(2-(2,6-difluorophenyl)-4-oxothiazolidin-3-yl)urea as a multi-tyrosine kinase inhibitor for drug-sensitive and drug-resistant cancers treatment” (Eur J Med Chem, 2019).
pIC50: −log10 of the molar value. Activity calls are given as the source filed them. The rule behind the calls is not given here.

Key:
A549 = assay: Antiproliferative activity against human A549 cells after 72 hrs by MTT assay; assay type: functional, cell-based; settings: A549, 72 h
HT-29 [1] = assay: Antiproliferative activity against human HT-29 cells after 72 hrs by MTT assay; assay type: functional, cell-based; settings: HT-29, 72 h
MDA-MB-231 = assay: Antiproliferative activity against human MDA-MB-231 cells after 72 hrs by MTT assay; assay type: functional, cell-based; settings: MDA-MB-231, 72 h
A549/CDDP = assay: Antiproliferative activity against human A549/CDDP cells after 72 hrs by MTT assay; assay type: functional, cell-based
MCF7 = assay: Antiproliferative activity against human MCF7 cells after 72 hrs by MTT assay; assay type: functional, cell-based; settings: MCF7, 72 h
[2] = Antiproliferative activity against human MCF7/DX cells after 72 hrs by MTT assay; assay type: functional, cell-based
HT-29 [3] = assay: Antiproliferative activity against human HT-29 cells after 72 hrs by IncuCyte live-cell imaging assay; assay type: functional, cell-based
HT-29 [4] = assay: Antiproliferative activity against human HT-29 cells assessed as cell confluence level at 10 ug/ml after 72 hrs by IncuCyte live-cell imaging assay (reference value: 87.5%); assay type: functional
HT-29 [5] = assay: Antiproliferative activity against human HT-29 cells assessed as cell confluence level at 0.37 ug/ml after 0 to 12 hrs by IncuCyte live-cell imaging assay (reference value: 87.5%); assay type: functional
HT-29 [6] = assay: Cytotoxicity against human HT-29 cells assessed as increase in dead cells after 72 hrs by yoyo-1 dye-based fluorescence assay; assay type: functional, cell-based
HT-29 [7] = assay: Cytotoxicity against human HT-29 cells assessed as increase in dead cells at 3.33 ug/mL up to 72 hrs by yoyo-1 dye-based fluorescence assay; assay type: functional, cell-based
HT-29 [8] = assay: Cytotoxicity against human HT-29 cells assessed as increase in dead cells at 0.01 ug/mL after 72 hrs by yoyo-1 dye-based fluorescence assay; assay type: functional, cell-based
HT-29 [9] = assay: Induction of apoptosis in human HT-29 cells assessed as early apoptotic cells at 0.1 ug/mL after 72 hrs by Annexin V-FITC/propidium iodide staining-based flow cytometric analysis (reference value: 0%); assay type: functional
HT-29 [10] = assay: Induction of apoptosis in human HT-29 cells assessed as late apoptotic cells at 0.1 ug/mL after 72 hrs by Annexin V-FITC/propidium iodide staining-based flow cytometric analysis (reference value: 0.1%); assay type: functional
HT-29 [11] = assay: Induction of apoptosis in human HT-29 cells assessed as early apoptotic cells at 0.3 ug/mL after 72 hrs by Annexin V-FITC/propidium iodide staining-based flow cytometric analysis (reference value: 0%); assay type: functional
HT-29 [12] = assay: Induction of apoptosis in human HT-29 cells assessed as late apoptotic cells at 0.3 ug/mL after 72 hrs by Annexin V-FITC/propidium iodide staining-based flow cytometric analysis (reference value: 0.1%); assay type: functional
HT-29 [13] = assay: Induction of apoptosis in human HT-29 cells assessed as early apoptotic cells at 1 ug/mL after 72 hrs by Annexin V-FITC/propidium iodide staining-based flow cytometric analysis (reference value: 0%); assay type: functional
HT-29 [14] = assay: Induction of apoptosis in human HT-29 cells assessed as late apoptotic cells at 1 ug/mL after 72 hrs by Annexin V-FITC/propidium iodide staining-based flow cytometric analysis (reference value: 0.1%); assay type: functional
HT-29 [15] = assay: Induction of apoptosis in human HT-29 cells assessed as early apoptotic cells at 3 ug/mL after 72 hrs by Annexin V-FITC/propidium iodide staining-based flow cytometric analysis (reference value: 0%); assay type: functional
HT-29 [16] = assay: Induction of apoptosis in human HT-29 cells assessed as late apoptotic cells at 3 ug/mL after 72 hrs by Annexin V-FITC/propidium iodide staining-based flow cytometric analysis (reference value: 0.1%); assay type: functional
HT-29 [17] = assay: Induction of apoptosis in human HT-29 cells after 72 hrs by Annexin V-FITC/propidium iodide staining-based flow cytometric analysis; assay type: functional, cell-based
HT-29 [18] = assay: Antimigratory activity against human HT-29 cells at 3.33 ug/mL after 48 to 72 hrs by wound healing assay; assay type: functional, cell-based
[19] = biological target: T1, Hepatocyte growth factor receptor (Homo sapiens, UniProt P08581); assay: Inhibition of c-Met (unknown origin) using FAM-labelled peptide and ATP incubated for 10 mins by mobility shift assay
[20] = biological target: Macrophage-stimulating protein receptor (Homo sapiens, UniProt Q04912); assay: Inhibition of Ron (unknown origin) using FAM-labelled peptide and ATP incubated for 10 mins by mobility shift assay
[21] = biological target: Mast/stem cell growth factor receptor Kit (Homo sapiens, UniProt P10721); assay: Inhibition of c-Kit (unknown origin) using FAM-labelled peptide and ATP incubated for 10 mins by mobility shift assay
[22] = biological target: Vascular endothelial growth factor receptor 2 (Homo sapiens, UniProt P35968); assay: Inhibition of KDR (unknown origin) using FAM-labelled peptide and ATP incubated for 10 mins by mobility shift assay
[23] = biological target: Receptor tyrosine-protein kinase erbB-2 (Homo sapiens, UniProt P04626); assay: Inhibition of HER-2 (unknown origin) using FAM-labelled peptide and ATP incubated for 10 mins by mobility shift assay
[24] = biological target: ALK tyrosine kinase receptor (Homo sapiens, UniProt Q9UM73); assay: Inhibition of ALK (unknown origin) using FAM-labelled peptide and ATP incubated for 10 mins by mobility shift assay
[25] = biological target: Proto-oncogene tyrosine-protein kinase Src (Homo sapiens, UniProt P12931); assay: Inhibition of c-Src (unknown origin) using FAM-labelled peptide and ATP incubated for 10 mins by mobility shift assay
[26] = biological target: Insulin-like growth factor 1 receptor (Homo sapiens, UniProt P08069); assay: Inhibition of IGF-1R (unknown origin) using FAM-labelled peptide and ATP incubated for 10 mins by mobility shift assay
[27] = biological target: Epidermal growth factor receptor (Homo sapiens, UniProt P00533); assay: Inhibition of EGFR (unknown origin) using FAM-labelled peptide and ATP incubated for 10 mins by mobility shift assay
[28] = biological target: T2, Tyrosine-protein kinase receptor UFO (Homo sapiens, UniProt P30530); assay: Inhibition of AXL (unknown origin) using FAM-labelled peptide and ATP incubated for 10 mins by mobility shift assay
T2 sequence (P30530 whole entry): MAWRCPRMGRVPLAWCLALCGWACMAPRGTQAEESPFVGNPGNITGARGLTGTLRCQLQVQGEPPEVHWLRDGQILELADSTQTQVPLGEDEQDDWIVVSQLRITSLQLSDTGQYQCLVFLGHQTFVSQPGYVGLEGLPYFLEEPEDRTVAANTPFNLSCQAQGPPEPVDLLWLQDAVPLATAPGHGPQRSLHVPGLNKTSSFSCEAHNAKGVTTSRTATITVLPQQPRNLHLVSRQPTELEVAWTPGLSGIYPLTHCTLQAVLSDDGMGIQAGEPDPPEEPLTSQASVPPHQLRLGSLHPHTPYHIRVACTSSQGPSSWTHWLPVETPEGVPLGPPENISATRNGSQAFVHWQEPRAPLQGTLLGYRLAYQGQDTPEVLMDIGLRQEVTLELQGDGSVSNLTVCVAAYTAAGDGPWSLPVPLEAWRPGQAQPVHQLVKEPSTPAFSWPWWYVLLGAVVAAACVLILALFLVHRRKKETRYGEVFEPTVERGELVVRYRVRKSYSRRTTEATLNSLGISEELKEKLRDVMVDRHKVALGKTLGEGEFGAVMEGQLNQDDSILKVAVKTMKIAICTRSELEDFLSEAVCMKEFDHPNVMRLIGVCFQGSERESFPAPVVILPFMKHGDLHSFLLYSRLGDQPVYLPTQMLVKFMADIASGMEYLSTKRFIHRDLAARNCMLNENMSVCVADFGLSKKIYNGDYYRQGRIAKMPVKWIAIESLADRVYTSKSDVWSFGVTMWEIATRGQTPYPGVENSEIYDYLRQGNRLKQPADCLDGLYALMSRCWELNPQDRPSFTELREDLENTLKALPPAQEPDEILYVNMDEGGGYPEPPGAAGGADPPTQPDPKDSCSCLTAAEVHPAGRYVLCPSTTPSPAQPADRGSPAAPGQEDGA

[29] = biological target: T1, Hepatocyte growth factor receptor; assay: Inhibition of c-Met phosphorylation in human HT-29 cells at 3 ug/mL after 72 hrs by Western blot analysis; assay type: cell-based
[30] = biological target: T1, Hepatocyte growth factor receptor; assay: Inhibition of c-Met in human HT-29 cells assessed as decrease in Akt phosphorylation at 3 ug/mL after 72 hrs by Western blot analysis; assay type: cell-based
[31] = biological target: T1, Hepatocyte growth factor receptor; assay: Inhibition of c-Met in human HT-29 cells assessed as decrease in ERK1/2 phosphorylation at 3 ug/mL after 72 hrs by Western blot analysis; assay type: cell-based
FHC = assay: Cytotoxicity against human FHC cells after 72 hrs by MTT assay; assay type: cell-based
[32] = Selectivity index, ratio of IC50 for human FHC cells to IC50 for human HT-29 cells; assay type: toxicity; settings: FHC cells and HT-29 cells, read-out: Ratio IC50
HT-29 [33] = assay: Antimigratory activity against human HT-29 cells at <3.33 ug/mL after 48 to 72 hrs by wound healing assay; assay type: functional, cell-based

T1 sequence (P08581 whole entry): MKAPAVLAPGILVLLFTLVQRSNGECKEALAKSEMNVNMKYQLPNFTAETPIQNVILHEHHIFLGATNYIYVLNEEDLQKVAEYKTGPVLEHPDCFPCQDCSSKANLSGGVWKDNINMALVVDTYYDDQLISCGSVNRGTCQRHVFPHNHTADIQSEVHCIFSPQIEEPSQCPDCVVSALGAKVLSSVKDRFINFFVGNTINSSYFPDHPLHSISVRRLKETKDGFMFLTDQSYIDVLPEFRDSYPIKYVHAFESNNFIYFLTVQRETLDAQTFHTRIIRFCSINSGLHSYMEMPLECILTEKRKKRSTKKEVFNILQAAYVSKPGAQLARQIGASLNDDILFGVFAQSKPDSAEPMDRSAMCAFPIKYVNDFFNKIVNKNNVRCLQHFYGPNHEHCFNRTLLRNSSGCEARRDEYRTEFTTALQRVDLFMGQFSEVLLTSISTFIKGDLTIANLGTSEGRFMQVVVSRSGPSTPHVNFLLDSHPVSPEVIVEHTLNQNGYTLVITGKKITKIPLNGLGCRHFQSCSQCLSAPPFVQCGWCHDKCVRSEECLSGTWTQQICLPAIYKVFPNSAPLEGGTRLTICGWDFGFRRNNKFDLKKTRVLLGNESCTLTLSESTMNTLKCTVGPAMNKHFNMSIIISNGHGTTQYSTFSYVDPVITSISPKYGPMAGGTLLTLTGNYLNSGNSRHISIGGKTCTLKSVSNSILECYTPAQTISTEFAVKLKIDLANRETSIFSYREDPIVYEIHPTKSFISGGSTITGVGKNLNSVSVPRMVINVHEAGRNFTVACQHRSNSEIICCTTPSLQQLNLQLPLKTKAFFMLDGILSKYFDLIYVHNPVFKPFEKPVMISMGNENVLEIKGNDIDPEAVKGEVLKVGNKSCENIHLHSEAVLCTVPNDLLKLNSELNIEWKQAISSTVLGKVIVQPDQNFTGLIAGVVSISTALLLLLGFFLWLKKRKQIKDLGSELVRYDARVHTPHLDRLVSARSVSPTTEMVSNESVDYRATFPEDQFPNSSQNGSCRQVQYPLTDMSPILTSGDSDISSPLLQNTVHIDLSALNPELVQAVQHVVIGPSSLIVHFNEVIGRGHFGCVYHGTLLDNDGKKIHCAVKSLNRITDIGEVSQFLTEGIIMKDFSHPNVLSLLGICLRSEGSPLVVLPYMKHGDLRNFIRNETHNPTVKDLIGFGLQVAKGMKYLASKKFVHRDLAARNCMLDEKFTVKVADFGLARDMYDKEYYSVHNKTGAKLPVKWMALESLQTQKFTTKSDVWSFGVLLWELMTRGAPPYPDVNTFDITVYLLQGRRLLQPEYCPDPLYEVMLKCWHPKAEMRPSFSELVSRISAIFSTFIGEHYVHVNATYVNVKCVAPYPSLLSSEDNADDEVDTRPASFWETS
Vascular endothelial growth factor receptor 2, sequence (P35968 whole entry): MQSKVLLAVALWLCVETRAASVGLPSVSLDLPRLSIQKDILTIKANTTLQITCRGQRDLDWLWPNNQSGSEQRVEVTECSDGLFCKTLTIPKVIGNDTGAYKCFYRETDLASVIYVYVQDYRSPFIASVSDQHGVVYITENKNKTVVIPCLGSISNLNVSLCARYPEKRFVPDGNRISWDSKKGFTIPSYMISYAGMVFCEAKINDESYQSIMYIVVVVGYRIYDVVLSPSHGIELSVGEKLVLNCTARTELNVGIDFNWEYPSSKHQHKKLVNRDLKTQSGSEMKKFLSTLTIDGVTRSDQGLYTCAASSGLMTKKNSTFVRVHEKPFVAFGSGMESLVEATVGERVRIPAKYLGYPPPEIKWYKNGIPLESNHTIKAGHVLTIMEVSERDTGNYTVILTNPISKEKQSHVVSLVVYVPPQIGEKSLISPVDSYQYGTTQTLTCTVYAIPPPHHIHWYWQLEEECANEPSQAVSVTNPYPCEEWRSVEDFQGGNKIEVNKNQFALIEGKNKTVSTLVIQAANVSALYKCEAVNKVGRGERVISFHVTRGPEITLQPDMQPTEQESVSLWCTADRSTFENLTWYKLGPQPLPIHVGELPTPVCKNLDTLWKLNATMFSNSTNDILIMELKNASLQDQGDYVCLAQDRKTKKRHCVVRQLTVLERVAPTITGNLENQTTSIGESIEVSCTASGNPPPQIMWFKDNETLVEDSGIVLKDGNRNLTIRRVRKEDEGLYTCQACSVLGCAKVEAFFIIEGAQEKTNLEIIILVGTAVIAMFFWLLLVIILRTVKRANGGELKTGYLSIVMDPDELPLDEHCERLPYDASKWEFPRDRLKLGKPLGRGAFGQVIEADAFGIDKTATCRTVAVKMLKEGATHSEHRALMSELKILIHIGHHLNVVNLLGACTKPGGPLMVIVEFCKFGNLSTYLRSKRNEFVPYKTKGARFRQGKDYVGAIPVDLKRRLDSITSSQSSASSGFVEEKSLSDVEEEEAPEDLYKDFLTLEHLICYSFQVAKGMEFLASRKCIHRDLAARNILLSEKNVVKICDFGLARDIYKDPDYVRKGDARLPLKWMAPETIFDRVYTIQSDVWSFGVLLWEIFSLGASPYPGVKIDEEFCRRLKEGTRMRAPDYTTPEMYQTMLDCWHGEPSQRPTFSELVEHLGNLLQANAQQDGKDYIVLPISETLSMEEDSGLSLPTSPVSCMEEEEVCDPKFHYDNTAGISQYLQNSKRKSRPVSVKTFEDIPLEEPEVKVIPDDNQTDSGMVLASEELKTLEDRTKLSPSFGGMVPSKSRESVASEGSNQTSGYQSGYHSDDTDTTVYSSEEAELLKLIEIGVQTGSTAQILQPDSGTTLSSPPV
Macrophage-stimulating protein receptor, sequence (Q04912 25-304 limits assumed): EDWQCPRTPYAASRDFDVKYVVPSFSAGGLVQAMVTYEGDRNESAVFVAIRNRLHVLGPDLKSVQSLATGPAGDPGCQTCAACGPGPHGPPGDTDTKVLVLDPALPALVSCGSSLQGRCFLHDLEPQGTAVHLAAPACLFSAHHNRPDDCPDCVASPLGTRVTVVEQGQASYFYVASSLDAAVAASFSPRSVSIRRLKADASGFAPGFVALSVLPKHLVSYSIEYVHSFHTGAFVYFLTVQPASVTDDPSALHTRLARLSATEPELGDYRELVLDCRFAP
Macrophage-stimulating protein receptor, sequence (Q04912 310-1400 limits assumed): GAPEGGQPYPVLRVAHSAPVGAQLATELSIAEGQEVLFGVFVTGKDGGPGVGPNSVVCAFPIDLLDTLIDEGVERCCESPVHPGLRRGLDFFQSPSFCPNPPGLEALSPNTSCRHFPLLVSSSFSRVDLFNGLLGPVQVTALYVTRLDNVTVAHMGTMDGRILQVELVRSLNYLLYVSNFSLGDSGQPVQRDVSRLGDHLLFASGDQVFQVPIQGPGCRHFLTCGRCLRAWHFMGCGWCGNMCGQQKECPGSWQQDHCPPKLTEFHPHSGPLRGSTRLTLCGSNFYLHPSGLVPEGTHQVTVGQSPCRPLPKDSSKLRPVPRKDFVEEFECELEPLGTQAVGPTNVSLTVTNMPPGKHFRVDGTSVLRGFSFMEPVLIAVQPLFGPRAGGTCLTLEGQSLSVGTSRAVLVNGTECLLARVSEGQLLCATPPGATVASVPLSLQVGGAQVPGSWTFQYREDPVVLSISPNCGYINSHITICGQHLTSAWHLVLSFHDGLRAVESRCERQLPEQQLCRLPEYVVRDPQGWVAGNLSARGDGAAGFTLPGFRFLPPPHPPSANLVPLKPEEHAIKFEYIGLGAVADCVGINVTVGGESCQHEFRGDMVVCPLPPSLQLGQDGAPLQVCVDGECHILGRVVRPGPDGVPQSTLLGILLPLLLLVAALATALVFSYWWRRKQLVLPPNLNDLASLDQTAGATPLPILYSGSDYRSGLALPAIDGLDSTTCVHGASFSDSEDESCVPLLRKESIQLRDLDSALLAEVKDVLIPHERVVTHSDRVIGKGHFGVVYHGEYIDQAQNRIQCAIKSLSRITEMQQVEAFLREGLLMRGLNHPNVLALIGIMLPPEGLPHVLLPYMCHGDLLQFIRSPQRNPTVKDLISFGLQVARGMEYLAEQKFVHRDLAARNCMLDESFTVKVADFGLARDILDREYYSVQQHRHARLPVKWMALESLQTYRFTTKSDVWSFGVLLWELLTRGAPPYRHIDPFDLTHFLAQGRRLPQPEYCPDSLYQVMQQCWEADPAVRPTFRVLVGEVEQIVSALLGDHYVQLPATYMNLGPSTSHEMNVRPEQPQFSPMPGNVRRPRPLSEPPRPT
Mast/stem cell growth factor receptor Kit, sequence (P10721 whole entry): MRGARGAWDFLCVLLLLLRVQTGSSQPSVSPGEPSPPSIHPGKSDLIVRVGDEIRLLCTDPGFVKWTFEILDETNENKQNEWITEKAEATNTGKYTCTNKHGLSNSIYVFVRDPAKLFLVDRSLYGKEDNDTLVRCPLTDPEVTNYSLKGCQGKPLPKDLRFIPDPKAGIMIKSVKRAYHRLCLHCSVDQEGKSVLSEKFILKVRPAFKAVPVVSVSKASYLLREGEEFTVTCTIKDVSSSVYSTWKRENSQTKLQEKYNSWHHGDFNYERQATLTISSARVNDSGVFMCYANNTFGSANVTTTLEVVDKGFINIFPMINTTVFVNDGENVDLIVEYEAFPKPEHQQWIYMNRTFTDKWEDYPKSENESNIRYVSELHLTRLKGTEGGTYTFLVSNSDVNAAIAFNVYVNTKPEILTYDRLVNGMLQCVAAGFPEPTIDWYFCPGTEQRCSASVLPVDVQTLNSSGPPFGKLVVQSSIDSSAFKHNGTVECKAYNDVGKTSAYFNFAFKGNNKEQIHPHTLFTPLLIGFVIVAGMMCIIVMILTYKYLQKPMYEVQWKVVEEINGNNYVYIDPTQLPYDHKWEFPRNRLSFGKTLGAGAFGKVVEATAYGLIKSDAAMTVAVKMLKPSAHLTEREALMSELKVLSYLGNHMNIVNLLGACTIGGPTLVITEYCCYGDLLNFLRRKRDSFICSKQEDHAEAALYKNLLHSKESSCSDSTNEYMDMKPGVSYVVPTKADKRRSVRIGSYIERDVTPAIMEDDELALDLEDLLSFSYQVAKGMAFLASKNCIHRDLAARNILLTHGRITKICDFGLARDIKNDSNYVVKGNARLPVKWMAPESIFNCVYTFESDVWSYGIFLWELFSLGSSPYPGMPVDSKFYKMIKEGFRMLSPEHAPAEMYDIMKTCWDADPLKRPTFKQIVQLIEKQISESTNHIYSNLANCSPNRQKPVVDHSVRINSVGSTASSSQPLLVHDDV

pIC50 (A549): 6.46
pIC50 (HT-29 [1]): 7.14
pIC50 (MDA-MB-231): 5.51
pIC50 (A549/CDDP): 6.20
pIC50 (MCF7): 5.82
pIC50 [19]: 7.82
pIC50 [20]: 8.54
pIC50 [21]: 7.19
pIC50 [22]: 6.07
pIC50 [23]: < 5.00
pIC50 [24]: < 5.00
pIC50 [25]: 6.62
pIC50 [26]: 5.68
pIC50 [27]: 6.28
pIC50 [28]: 7.28
inhibition [29]: Active
inhibition [30]: Active
inhibition [31]: Active
Structure (SMILES): CCN1CCN(CCCOc2cc3nccc(Oc4c(F)cc(NC(=O)NN5C(=O)CSC5c5c(F)cccc5F)cc4F)c3cc2OC)CC1 (stereo not drawn)
pIC50 [2]: 5.42
Activity (HT-29 [3]): Dose-dependent effect
Activity (HT-29 [4]): 24.3%
Activity (HT-29 [5]): 63.6%
Activity (HT-29 [6]): Dose-dependent effect
Activity (HT-29 [7]): Active
Activity (HT-29 [8]): Active
Activity (HT-29 [9]): 17.4%
Activity (HT-29 [10]): 9.9%
Activity (HT-29 [11]): 55.1%
Activity (HT-29 [12]): 9.6%
Activity (HT-29 [13]): 70.2%
Activity (HT-29 [14]): 11%
Activity (HT-29 [15]): 74.5%
Activity (HT-29 [16]): 10.3%
Activity (HT-29 [17]): Dose-dependent effect
Activity (HT-29 [18]): Active
pIC50 (FHC): 5.93
selectivity ratio [32]: 16.2
Activity (HT-29 [33]): inactive
